Reference: US12011444B2, “N-substituted indole derivatives as PGE2 receptor modulators” (Idorsia Pharmaceuticals Ltd, priority 2015, dated 2024)

Legend:
[1] = target: EP2 (Homo sapiens (Human), UniProt P43116);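 further: antagonism of PGE2-stimulated cAMP accumulation in SF295 human glioblastoma cells with endogenous EP2, cAMP read by HTRF, expressed relative to DMSO control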
[2] = target: EP4 (Homo sapiens (Human), UniProt P35408); test: hEP4 cAMP assay (BT549 breast cancer cells, HTRF cAMP); assay type: cell-based; conditions: antagonistic activity; mean values where measured multiple times
Chain of EP4 (P35408 whole entry): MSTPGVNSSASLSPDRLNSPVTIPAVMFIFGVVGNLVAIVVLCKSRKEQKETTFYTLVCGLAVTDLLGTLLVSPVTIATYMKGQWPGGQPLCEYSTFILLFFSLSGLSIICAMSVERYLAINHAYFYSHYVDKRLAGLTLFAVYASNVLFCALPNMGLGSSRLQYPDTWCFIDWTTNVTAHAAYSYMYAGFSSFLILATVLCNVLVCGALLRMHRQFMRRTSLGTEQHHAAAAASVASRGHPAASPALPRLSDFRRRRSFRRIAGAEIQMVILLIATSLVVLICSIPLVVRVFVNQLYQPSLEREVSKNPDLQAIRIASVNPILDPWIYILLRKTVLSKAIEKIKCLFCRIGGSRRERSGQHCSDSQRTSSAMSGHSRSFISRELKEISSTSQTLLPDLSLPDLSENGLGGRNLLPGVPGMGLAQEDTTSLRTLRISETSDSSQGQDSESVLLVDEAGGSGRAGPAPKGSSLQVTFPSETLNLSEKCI
Protocol: Plate is pre-incubated 45 minutes at room temperature. Subsequently, 2.5 microliters of PGE2 (final conc. 6 nM) are transferred into the assay plate. Plate is incubated 30 minutes at room temperature.

[3] = target: PTRGER4 (EP4) (Homo sapiens (Human), UniProt P35408); test: hEP4 b-arrestin assay (PathHunter HEK 293 PTGER4 b-arrestin cells); assay type: cell-based; conditions: antagonistic activity on hEP4; mean where measured multiple times
Chain of PTRGER4 (EP4) (P35408 whole entry, looked up, the tested form may be a part): as the sequence (P35408 whole entry) above
In short: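 Antagonist mode: compound is given 15 min at 37 °C, then 20 nM (final) PGE2 for 120 min, in HEK293 cells stably expressing EP4 fused to ProLink and β-arrestin 2 fused to EA. Recruitment read as β-gal luminescence after 1 h reagent at room temperature, as percent of DMSO control.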

[4] = target: PTGER2 (EP2) (Homo sapiens (Human), UniProt P43116); test: hEP2 b-arrestin assay (PathHunter HEK 293 PTGER2 b-arrestin cells); assay type: cell-based; conditions: antagonistic activity on hEP2; mean where measured multiple times
Chain of PTGER2 (EP2) (P43116 whole entry): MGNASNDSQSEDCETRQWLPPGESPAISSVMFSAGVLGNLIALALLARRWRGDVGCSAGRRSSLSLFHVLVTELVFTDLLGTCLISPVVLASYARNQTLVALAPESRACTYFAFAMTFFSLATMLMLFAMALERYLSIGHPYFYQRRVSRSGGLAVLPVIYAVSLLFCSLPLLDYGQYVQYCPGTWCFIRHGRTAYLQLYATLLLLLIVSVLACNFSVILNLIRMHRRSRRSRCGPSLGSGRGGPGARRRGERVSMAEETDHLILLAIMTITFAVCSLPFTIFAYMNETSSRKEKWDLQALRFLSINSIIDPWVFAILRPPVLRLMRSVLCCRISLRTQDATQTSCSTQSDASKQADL
In short: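 Readout is β-galactosidase complementation luminescence, expressed as percent of DMSO control (duplicates). PathHunter HEK293 EP2/β-arrestin 2 cells, grown 24 h, received compound for 15 min at 37 °C before a 120 min challenge with PGE2 at 5 μM final, followed by 1 h detection at room temperature.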

Chain of EP2 (P43116 whole entry): as above

Structure (SMILES)	IC50 [1]	IC50 [2]	IC50 [3]	IC50 [4]
COc1cc(-c2cc(NCCn3c(C)cc4ccccc43)ncn2)ccc1-c1nnn[nH]1 [Example 746, {6-[3-Methoxy-4-(1H-tetrazol-5-yl)-phenyl]-pyrimidin-4-yl}-[2-(2-methyl-indol-1-yl)-ethyl]-amine]	10 nM	869 nM		
COc1cc(-c2cc(NCCn3c(C)cc4c(F)ccc(F)c43)ncn2)ccc1-c1nnn[nH]1 [Example 747, [2-(4,7-Difluoro-2-methyl-indol-1-yl)-ethyl]-{6-[3-methoxy-4-(1H-tetrazol-5-yl)-phenyl]-pyrimidin-4-yl}-amine]	3 nM	318 nM		
COc1cc(-c2cc(NCCn3c(C)cc4c(C)ccc(F)c43)ncn2)ccc1-c1nnn[nH]1 [Example 748, [2-(7-Fluoro-2,4-dimethyl-indol-1-yl)-ethyl]-{6-[3-methoxy-4-(1H-tetrazol-5-yl)-phenyl]-pyrimidin-4-yl}-amine]	70 nM	170 nM		
COc1cc(-c2ccc(-c3cc(NCCn4c(C)cc5c(OC)cc(F)cc54)ncn3)cc2)ncn1 [Example 749, [2-(6-Fluoro-4-methoxy-2-methyl-indol-1-yl)-ethyl]-{6-[4-(6-methoxy-pyrimidin-4-yl)-phenyl]-pyrimidin-4-yl}-amine]	81 nM	425 nM		
COc1cc(F)cc2c1cc(C)n2CCNc1cc(-c2ccc(-c3cnccn3)cc2)ncn1 [Example 750, [2-(6-Fluoro-4-methoxy-2-methyl-indol-1-yl)-ethyl]-[6-(4-pyrazin-2-yl-phenyl)-pyrimidin-4-yl]-amine]	16 nM	91 nM		
COc1cc(F)cc2c1cc(C)n2CCNc1cc(-c2ccc(-c3nccs3)cc2)ncn1 [Example 751, [2-(6-Fluoro-4-methoxy-2-methyl-indol-1-yl)-ethyl]-[6-(4-thiazol-2-yl-phenyl)-pyrimidin-4-yl]-amine]	8 nM	105 nM		
COc1cc(F)cc2c1cc(C)n2CCNc1cc(-c2ccc(-c3ncc(C)n3C)cc2)ncn1 [Example 752, {6-[4-(1,5-Dimethyl-1H-imidazol-2-yl)-phenyl]-pyrimidin-4-yl}-[2-(6-fluoro-4-methoxy-2-methyl-indol-1-yl)-ethyl]-amine]	85 nM	633 nM		
COc1cc(F)cc2c1cc(C)n2CCNc1cc(-c2ccc(-c3ncnn3C)cc2)ncn1 [Example 753, [2-(6-Fluoro-4-methoxy-2-methyl-indol-1-yl)-ethyl]-{6-[4-(2-methyl-2H-[1,2,4]triazol-3-yl)-phenyl]-pyrimidin-4-yl}-amine]	101 nM	548 nM		
COc1cc(F)cc2c1cc(C)n2CCNc1cc(-c2ccc(-c3ncccn3)cc2)ncn1 [Example 755, [2-(6-Fluoro-4-methoxy-2-methyl-indol-1-yl)-ethyl]-[6-(4-pyrimidin-2-yl-phenyl)-pyrimidin-4-yl]-amine]	41 nM	452 nM		
COc1ccc(-c2ccc(-c3cc(NCCn4c(C)cc5c(OC)cc(F)cc54)ncn3)cc2)nn1 [Example 756, [2-(6-Fluoro-4-methoxy-2-methyl-indol-1-yl)-ethyl]-{6-[4-(6-methoxy-pyridazin-3-yl)-phenyl]-pyrimidin-4-yl}-amine]	85 nM	194 nM		
COc1cnc(-c2ccc(-c3cc(NCCn4c(C)cc5c(OC)cc(F)cc54)ncn3)cc2)nc1 [Example 757, [2-(6-Fluoro-4-methoxy-2-methyl-indol-1-yl)-ethyl]-{6-[4-(5-methoxy-pyrimidin-2-yl)-phenyl]-pyrimidin-4-yl}-amine]	44 nM	345 nM		
COc1cc(F)cc2c1cc(C)n2CCNc1cc(-c2ccc(-c3nc(C)cs3)cc2)ncn1 [Example 758, [2-(6-Fluoro-4-methoxy-2-methyl-indol-1-yl)-ethyl]-{6-[4-(4-methyl-thiazol-2-yl)-phenyl]-pyrimidin-4-yl}-amine]	32 nM	113 nM		
COc1cc(F)cc2c1cc(C)n2CCNc1cc(-c2ccc(-c3cc(F)ccn3)cc2)ncn1 [Example 759, [2-(6-Fluoro-4-methoxy-2-methyl-indol-1-yl)-ethyl]-{6-[4-(4-fluoro-pyridin-2-yl)-phenyl]-pyrimidin-4-yl}-amine]	55 nM	760 nM		
COc1cc(F)cc2c1cc(C)n2CCNc1cc(-c2ccc(-c3nc(C)c(C)s3)cc2)ncn1 [Example 760, {6-[4-(4,5-Dimethyl-thiazol-2-yl)-phenyl]-pyrimidin-4-yl}-[2-(6-fluoro-4-methoxy-2-methyl-indol-1-yl)-ethyl]-amine]	90 nM	795 nM		
Cc1ccc(F)c2c1cc(C)n2CCNc1cc(-c2ccc(C(=O)O)c(CCC(C)C)c2)ncn1 [compound 369]			238 nM	87 nM
Cc1cc2c(Cl)ccc(Cl)c2n1CCNc1cc(-c2ccc(C(=O)O)c(SCC(C)C)c2)ncn1 [compound 370, 4-{6-[2-(4,7-Dichloro-2-methyl-indol-1-yl)-ethylamino]-pyrimidin-4-yl}-2-isobutylsulfanyl-benzoic acid]			992 nM	35 nM
CCCSc1cc(-c2cc(NCCn3c(C)cc4c(C)c(F)cc(Cl)c43)ncn2)ccc1C(=O)O [compound 371]			875 nM	70 nM
CCCc1cc(-c2cc(NCCn3c(C)cc4cc(OC)cc(F)c43)ncn2)cc(Cl)c1C(=O)O [compound 372]			381 nM	260 nM
CCCc1cc(-c2cc(NCCn3c(C)cc4c(OC)c(F)cc(F)c43)ncn2)ccc1C(=O)O [compound 373]			183 nM	79 nM
CCNC(=O)Nc1ccc(-c2cc(NCCn3c(C)cc4c(C)ccc(F)c43)ncn2)cc1OC [compound 374]			67 nM	53 nM
CCNC(=O)Nc1ccc(-c2cc(NCCn3c(C)cc4c(OC)cccc43)ncn2)cc1OC [compound 375, 1-Ethyl-3-(2-methoxy-4-{6-[2-(4-methoxy-2-methyl-indol-1-yl)-ethylamino]-pyrimidin-4-yl}-phenyl)-urea]			57 nM	20 nM

Structure (SMILES)	IC50 [1]	IC50 [2]	IC50 [3]	IC50 [4]
COc1ccc(F)c2c1cc(C)n2CCNc1cc(-c2ccc3nccnc3c2)ncn1 [compound 376]			184 nM	50 nM
CCOc1cc(-c2cc(NCCn3c(C)cc4c(OC)ccc(F)c43)ncn2)ccc1S(N)(=O)=O [compound 377]			697 nM	51 nM
Cc1ccc(F)c2c1cc(C)n2CCNc1cc(-c2ccc(C3(C(=O)O)CC3)c(F)c2)ncn1 [compound 378]			449 nM	340 nM
Cc1ccc(F)c2c1cc(C)n2CCNc1cc(-c2ccc(S(N)(=O)=O)c(C(F)(F)F)c2)ncn1 [compound 379]			354 nM	63 nM
COc1cccc2c1cc(C)n2CCNc1cc(-c2ccc(S(N)(=O)=O)c(C(F)(F)F)c2)ncn1 [compound 380]			677 nM	58 nM
CCNc1cc(-c2cc(NCCn3c(C)cc4c(OC)ccc(F)c43)ncn2)cc(Cl)c1C(=O)O [compound 381, 2-Chloro-6-ethylamino-4-{6-[2-(7-fluoro-4-methoxy-2-methyl-indol-1-yl)-ethylamino]-pyrimidin-4-yl}-benzoic acid]			84 nM	3 nM
COc1cc(F)cc2c1cc(C)n2CCNc1cc(-c2ccc(C(=O)O)c(C3CC3)c2)ncn1 [compound 382]			359 nM	27 nM
COc1ccc(F)c2c1cc(C)n2CCNc1cc(-c2ccc3ccncc3c2)ncn1 [compound 383]			147 nM	17 nM
COc1ccc(F)c2c1cc(C)n2CCNc1cc(-c2ccc3ncccc3c2)ncn1 [compound 384]			60 nM	13 nM
COc1ccc(F)c2c1cc(C)n2CCNc1cc(-c2ccc(C3(N)CC3)cc2)ncn1 [compound 385]			468 nM	183 nM
COc1cccc2c1cc(C)n2CCNc1cc(-c2ccc(C3(C(=O)O)CC3)c(F)c2)ncn1 [compound 386]			559 nM	40 nM
CNc1nnc(-c2ccc(-c3cc(NCCn4c(C)cc5ccccc54)ncn3)cc2)s1 [compound 387]			556 nM	2 nM
COc1ccc(Cl)c2c1cc(C)n2CCNc1cc(-c2ccc3c(C(=O)O)n[nH]c3c2)ncn1 [compound 388]			963 nM	34 nM
COc1ccc(F)c2c1cc(C)n2CCNc1cc(-c2ccc3c(C(=O)O)n[nH]c3c2)ncn1 [compound 389]			734 nM	26 nM
Cc1cc(F)cc2c1cc(C)n2CCNc1cc(-c2cc(Cl)c(C(=O)O)c(Cl)c2)ncn1 [compound 390]			146 nM	38 nM
CCOc1cc(-c2cc(NCCn3c(C#N)cc4c(OC)cc(F)cc43)ncn2)sc1C(=O)O [compound 391]			3 nM	2 nM
CCNc1cc(-c2cc(NCCn3c(C)cc4c(C)ccc(F)c43)ncn2)cc(F)c1C(=O)O [compound 392]			97 nM	7 nM
CCCc1cc(-c2cc(NCCn3c(C)cc4c(C#N)ccc(F)c43)ncn2)ccc1C(=O)O [compound 393]			745 nM	9 nM
COc1ccc(F)c2c1cc(C)n2CCNc1cc(-c2ccc(C(=O)O)c([N+](=O)[O-])c2)ncn1 [compound 394]			296 nM	15 nM
CCOc1cc(-c2cc(NCCn3c(C#N)cc4c(C)cc(F)cc43)ncn2)ccc1C(=O)O [compound 395]			137 nM	24 nM
